Experimental data as given in US20040071768A1, “Compositions and methods for treating cancer” (Inex Pharmaceuticals Corporation, priority 1999, published 2004).
Read-outs that look alike come from different tables or passages of the source.

Legend:
[1] = system: NCl H460 non small cell lung xenografts; assay: Multiple dose (q7dx3) anti-tumor activity, NCl H460 non small cell lung xenograft
Protocol: Female NCr nude mice were injected intravenously (q7dx3, beginning day 7) via the lateral tail vein. […] Mitomycin C (⋄) was prepared in saline and injected iv (q4dx3) at a dose of 3 mg/kg/dose. Drug-to-lipid ratio was 0.3/1 (w/w). Data points represent median tumor volume (n=6).
(§1) The anti-tumor activity of multiple (q7d3) dose schedules of liposomal vinorelbine was evaluated in several human xenograft tumor models. The goal of this series of studies was to identify the benefits of encapsulation by evaluating a series of doses and determining the therapeutic index in several xenograft models. Models were selected based on the following criteria: (1) activity in the single dose studies, (2) a comprehensive literature review of vinca alkaloid efficacy, (3) a desire to include at least 2-3 models that represent the clinical use of vinorelbine, and (4) a desire to include models with a range of sensitivity to vinorelbine so that improvements resulting from the use of the liposome formulation might be identified. Based on these criteria, MX-1 and MDA-MB-435 breast models, the NCl-H460 NSCLC model and the HT-29 and DLD-1 colon models were chosen.
(§2) Therapeutic index (TI) is a parameter that quantifies the “safety factor” of a particular therapy. TI is a ratio of a toxicity parameter and a biological activity parameter. Therefore, a higher ratio represents a greater potential margin of safety. For these studies, TI is defined as follows: […]
(§3) The minimal effective dose (MED) was set according to NCl activity criteria as the dose resulting in an optimal % T/C of 40. This information was derived from Table 7.

DLD-1 colon xenografts = system: DLD-1 colon xenografts
Protocol: Female NCr nude mice were injected intravenously (q7dx3) via the lateral tail vein on days indicated by an asterisk (*). […] Irinotecan (⋄) was prepared in saline and injected iv (q4dx3) at a dose of 90 mg/kg/dose. Drug-to-lipid ratio was 0.3/1 (w/w). Data points represent median tumor volume (n=6).
as §1, §2, §3

CCC1=C[C@@H]2CN(C1)Cc1c([nH]c3ccccc13)[C@@](C(=O)OC)(c1cc3c(cc1OC)N(C)[C@H]1[C@@](O)(C(=O)OC)[C@H](OC(C)=O)[C@]4(CC)C=CCN5CC[C@]31[C@@H]54)C2 [VRL, 5′-noranhydrovinblastine]
% T/C (optimal % T/C following final treatment) ([1]; 5 mg/kg i.v. q7dx3): 63% | DRD (drug related deaths, n = 6) ([1]; 5 mg/kg i.v. q7dx3): 0 | NCI Score ([1]; 5 mg/kg i.v. q7dx3): 0 | T-C (tumor growth delay to 1000 mm^3) ([1]; 5 mg/kg i.v. q7dx3): 2.8 | TF (tumor free animals at the end of study) ([1]; 5 mg/kg i.v. q7dx3, n=6): 0 | % T/C (optimal % T/C following final treatment) ([1]; 10 mg/kg i.v. q7dx3): 45% | DRD (drug related deaths, n = 6) ([1]; 10 mg/kg i.v. q7dx3): 0 | NCI Score ([1]; 10 mg/kg i.v. q7dx3): 0 | T-C (tumor growth delay to 1000 mm^3) ([1]; 10 mg/kg i.v. q7dx3): 6.2 | TF (tumor free animals at the end of study) ([1]; 10 mg/kg i.v. q7dx3, n=6): 0 | % T/C (optimal % T/C following final treatment) ([1]; 20 mg/kg i.v. q7dx3): 30% | DRD (drug related deaths, n = 6) ([1]; 20 mg/kg i.v. q7dx3): 0 | NCI Score ([1]; 20 mg/kg i.v. q7dx3): 1 | T-C (tumor growth delay to 1000 mm^3) ([1]; 20 mg/kg i.v. q7dx3): 9.1 | TF (tumor free animals at the end of study) ([1]; 20 mg/kg i.v. q7dx3, n=6): 0 | % T/C (optimal % T/C following final treatment) ([1]; 30 mg/kg i.v. q7dx3): 10% | DRD (drug related deaths, n = 6) ([1]; 30 mg/kg i.v. q7dx3): 2 | NCI Score ([1]; 30 mg/kg i.v. q7dx3): 1 | T-C (tumor growth delay to 1000 mm^3) ([1]; 30 mg/kg i.v. q7dx3): 19.1 | TF (tumor free animals at the end of study) ([1]; 30 mg/kg i.v. q7dx3, n=6): 0 | % T/C (optimal % T/C following final treatment) (DLD-1 colon xenografts; 5 mg/kg i.v. q7dx3): 88% | DRD (drug related deaths, n = 6) (DLD-1 colon xenografts; 5 mg/kg i.v. q7dx3): 0 | NCI Score (DLD-1 colon xenografts; 5 mg/kg i.v. q7dx3): 0 | T-C (tumor growth delay to 1000 mm^3) (DLD-1 colon xenografts; 5 mg/kg i.v. q7dx3): 0.0 | TF (tumor free animals at the end of study) (DLD-1 colon xenografts; 5 mg/kg i.v. q7dx3, n=6): 0 | % T/C (optimal % T/C following final treatment) (DLD-1 colon xenografts; 10 mg/kg i.v. q7dx3): 58% | DRD (drug related deaths, n = 6) (DLD-1 colon xenografts; 10 mg/kg i.v. q7dx3): 0 | NCI Score (DLD-1 colon xenografts; 10 mg/kg i.v. q7dx3): 0 | T-C (tumor growth delay to 1000 mm^3) (DLD-1 colon xenografts; 10 mg/kg i.v. q7dx3): 4.7 | TF (tumor free animals at the end of study) (DLD-1 colon xenografts; 10 mg/kg i.v. q7dx3, n=6): 0 | % T/C (optimal % T/C following final treatment) (DLD-1 colon xenografts; 20 mg/kg i.v. q7dx3): −36% | DRD (drug related deaths, n = 6) (DLD-1 colon xenografts; 20 mg/kg i.v. q7dx3): 0 | NCI Score (DLD-1 colon xenografts; 20 mg/kg i.v. q7dx3): 2 | T-C (tumor growth delay to 1000 mm^3) (DLD-1 colon xenografts; 20 mg/kg i.v. q7dx3): 19.7 | TF (tumor free animals at the end of study) (DLD-1 colon xenografts; 20 mg/kg i.v. q7dx3, n=6): 0 | % T/C (optimal % T/C following final treatment) (DLD-1 colon xenografts; 30 mg/kg i.v. q7dx3): −100% | DRD (drug related deaths, n = 6) (DLD-1 colon xenografts; 30 mg/kg i.v. q7dx3): 2 | NCI Score (DLD-1 colon xenografts; 30 mg/kg i.v. q7dx3): 3 | T-C (tumor growth delay to 1000 mm^3) (DLD-1 colon xenografts; 30 mg/kg i.v. q7dx3): 26.4 | TF (tumor free animals at the end of study) (DLD-1 colon xenografts; 30 mg/kg i.v. q7dx3, n=6): 0
